In patent US20260217767A1, “NOVEL A4B7 THIOETHER PEPTIDE DIMER ANTAGONISTS” (Protagonist Therapeutics, Inc., priority 2014, published 2026):
pIC50: −log10 of the molar value. Where a SMILES comes first, the peptide text is derived from it.

Target: T1, rh integrin α4β7 (Homo sapiens, UniProt P13612+P26010)
T1 construct: purchased R&D Systems 5397-A30
T1 sequence (P13612 34-977 limits assumed): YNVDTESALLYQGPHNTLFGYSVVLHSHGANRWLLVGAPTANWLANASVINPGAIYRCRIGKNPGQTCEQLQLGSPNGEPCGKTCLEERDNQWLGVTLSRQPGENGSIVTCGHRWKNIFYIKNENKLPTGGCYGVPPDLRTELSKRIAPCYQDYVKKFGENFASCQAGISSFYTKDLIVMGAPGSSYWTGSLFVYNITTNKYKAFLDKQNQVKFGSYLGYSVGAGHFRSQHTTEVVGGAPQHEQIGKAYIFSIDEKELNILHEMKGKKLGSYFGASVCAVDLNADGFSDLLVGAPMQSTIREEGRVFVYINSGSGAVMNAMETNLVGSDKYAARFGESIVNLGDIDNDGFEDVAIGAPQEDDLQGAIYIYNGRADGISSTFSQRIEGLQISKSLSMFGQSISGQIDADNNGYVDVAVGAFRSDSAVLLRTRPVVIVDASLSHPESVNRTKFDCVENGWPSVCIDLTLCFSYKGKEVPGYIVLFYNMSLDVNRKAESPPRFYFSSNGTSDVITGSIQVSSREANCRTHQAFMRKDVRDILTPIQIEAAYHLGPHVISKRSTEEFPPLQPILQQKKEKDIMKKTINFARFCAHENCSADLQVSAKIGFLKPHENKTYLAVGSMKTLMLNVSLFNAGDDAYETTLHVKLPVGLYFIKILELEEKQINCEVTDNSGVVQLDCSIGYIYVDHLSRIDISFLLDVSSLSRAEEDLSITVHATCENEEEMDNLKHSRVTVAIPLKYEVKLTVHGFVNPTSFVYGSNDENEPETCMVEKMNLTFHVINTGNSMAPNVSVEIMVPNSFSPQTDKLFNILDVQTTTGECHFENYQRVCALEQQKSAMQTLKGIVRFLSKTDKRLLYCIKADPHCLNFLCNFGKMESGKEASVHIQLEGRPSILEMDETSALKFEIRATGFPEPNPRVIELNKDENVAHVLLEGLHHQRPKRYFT
T1 sequence (P26010 20-723 limits assumed): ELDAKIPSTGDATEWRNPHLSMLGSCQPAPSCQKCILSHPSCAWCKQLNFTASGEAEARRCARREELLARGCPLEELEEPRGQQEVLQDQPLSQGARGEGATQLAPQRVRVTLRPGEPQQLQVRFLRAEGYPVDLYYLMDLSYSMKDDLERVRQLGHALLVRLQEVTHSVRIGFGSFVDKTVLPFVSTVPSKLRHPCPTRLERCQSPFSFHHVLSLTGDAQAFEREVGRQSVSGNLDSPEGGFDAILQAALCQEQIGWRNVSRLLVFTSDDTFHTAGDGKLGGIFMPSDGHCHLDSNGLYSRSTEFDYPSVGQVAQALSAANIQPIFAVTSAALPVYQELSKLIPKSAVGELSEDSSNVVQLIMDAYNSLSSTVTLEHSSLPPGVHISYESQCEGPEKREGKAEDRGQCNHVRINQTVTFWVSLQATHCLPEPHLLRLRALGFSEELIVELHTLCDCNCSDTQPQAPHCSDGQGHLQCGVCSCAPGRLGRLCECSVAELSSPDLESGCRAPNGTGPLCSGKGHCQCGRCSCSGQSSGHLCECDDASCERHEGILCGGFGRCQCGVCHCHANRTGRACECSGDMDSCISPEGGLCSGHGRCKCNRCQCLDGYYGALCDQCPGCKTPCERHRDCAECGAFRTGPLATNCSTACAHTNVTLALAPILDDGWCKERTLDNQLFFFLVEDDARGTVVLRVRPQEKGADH
Assay: α4β7-MAdCAM Competition ELISA
Format: binding
Details: thioether monomer peptides, Table 6; read-out: ELISA A4B7
Experimental: α4β7-MAdCAM Competition ELISA A nickel coated plate (Pierce #15442) was coated with rh integrin α4β[…] Systems #5397-A30) at 800 ng/well and incubated at room temperature with shaking for 1 hr. The solution was then removed by shaking and blocked with assay buffer (50 mM Tris-HCl pH7.6, 150 mM NaCl, 1 mM MnCl2 or MgCl2, 0.05% Tween-20 and 0.5% BSA) at 250 ul/well. The plate was then incubated at room temperature for 1 hr. Each well was washed 3 times with wash buffer (50 mM Tris-HCl pH7.6, 100 mM NaCl, 1 mM MnCl2 or MgCl2, 0.05% Tween-20). To each well was added 25 ul of a serial dilution (3-fold dilutions in assay buffer) of peptides starting at 20 μM. 25 ul of recombinant human MAdCAM-1 (R&D Systems #6056-MC) was then added to each well at a fixed concentration 20 nM. The final starting peptide concentration was 10 μM, and the final MAdCAM-1 concentration was 10 nM. The plates were then incubated at room temperature for 1 hr to reach binding equilibrium. The wells were then washed three times with wash buffer. 50 ul of mouse anti-human IgG1-HRP (Invitrogen #A10648) diluted in 1:2000 in assay buffer was then added to each well. The wells were incubated at room temperature for 45 min with shaking. The wells were then washed 3 times with wash buffer. 100 ul of TMB were then added to each well and closely observe during development time. The reaction was stopped with 2N H2SO4 and absorbance was read at 450 nm.

`CC(=O)NCCCC[C@@H](C(N)=O)N(C)C(=O)[C@H](Cc1ccc(O)cc1)NC(=O)[C@H](Cc1c[nH]c2ccccc12)NC(=O)[C@H]1NC(=O)[C@H](CC(C)C)NC(=O)[C@H]([C@@H](C)O)NC(=O)[C@H](CC(=O)O)NC(=O)[C@H](CO)NC(=O)[C@H](CCCNC(=N)N)N(C)C(=O)c2ccccc2CSC1(C)C` [compound 85] (HELM PEPTIDE1{[meR].S.D.T.L.[Pen].W.Y.[CN([C@@H](CCCCN[*:3])C(=O)[*:2])[*:1]].[am]}|PEPTIDE2{[ac]}|CHEM1{[O=C(c1ccccc1C[*:2])[*:1]]}$PEPTIDE1,PEPTIDE2,9:R3-1:R2|PEPTIDE1,CHEM1,1:R1-1:R1|PEPTIDE1,CHEM1,6:R3-1:R2$$$V2.0) and `CC(=O)NCCCC[C@H](C(N)=O)N(C)C(=O)[C@H](CCC(=O)O)NC(=O)[C@H](Cc1c[nH]c2ccccc12)NC(=O)[C@H]1NC(=O)[C@H](CC(C)C)NC(=O)[C@H]([C@@H](C)O)NC(=O)[C@H](CC(=O)O)NC(=O)[C@H](CO)NC(=O)[C@H](CCCNC(=N)N)N(C)C(=O)c2ccccc2CSC1(C)C` [compound 84] (HELM PEPTIDE1{[meR].S.D.T.L.[Pen].W.E.[CN([C@H](CCCCN[*:3])C(=O)[*:2])[*:1]].[am]}|PEPTIDE2{[ac]}|CHEM1{[O=C(c1ccccc1C[*:2])[*:1]]}$PEPTIDE1,PEPTIDE2,9:R3-1:R2|PEPTIDE1,CHEM1,1:R1-1:R1|PEPTIDE1,CHEM1,6:R3-1:R2$$$V2.0) cannot be ordered by pIC50: over 7.60 for the first, over 7.60 for the second.

`CC(C)C[C@@H]1NC(=O)[C@H]([C@@H](C)O)NC(=O)[C@H](CC(=O)O)NC(=O)[C@H](CO)NC(=O)[C@H](CCCNC(=N)N)N(C)C(=O)C(C)(C)SC[C@@H](C(=O)N[C@@H](Cc2c[nH]c3ccccc23)C(=O)N[C@H](CCCCN)C(N)=O)NC1=O` [compound 52] and `CC(C)C[C@@H]1NC(=O)[C@H]([C@@H](C)O)NC(=O)[C@H](CC(=O)O)NC(=O)[C@H](CO)NC(=O)[C@H](CCCNC(=N)N)N(C)C(=O)C(C)SC(C)(C)[C@@H](C(=O)N[C@@H](Cc2c[nH]c3ccccc23)C(=O)N[C@H](CCCCN)C(N)=O)NC1=O` (single isomer, unassigned) [compound 54] cannot be ordered by pIC50: under 6.00 for the first, under 6.00 for the second.

`CC(C)C[C@@H]1NC(=O)[C@H]([C@@H](C)O)NC(=O)[C@H](CC(=O)O)NC(=O)[C@H](CO)NC(=O)[C@H](CCCNC(=N)N)N(C)C(=O)c2ccccc2CSC(C)(C)[C@@H](C(=O)N[C@@H](Cc2c[nH]c3ccccc23)C(=O)N[C@H](CCC(=O)O)C(=O)N[C@@H](CCC(N)=O)C(N)=O)NC1=O` [compound 103] (HELM PEPTIDE1{[meR].S.D.T.L.[Pen].W.[dE].Q.[am]}|CHEM1{[O=C(c1ccccc1C[*:2])[*:1]]}$PEPTIDE1,CHEM1,1:R1-1:R1|PEPTIDE1,CHEM1,6:R3-1:R2$$$V2.0) and `CC(C)C[C@H](NC(=O)[C@@H](CCC(=O)O)NC(=O)[C@H](Cc1c[nH]c2ccccc12)NC(=O)[C@H]1NC(=O)[C@H](CC(C)C)NC(=O)[C@H]([C@@H](C)O)NC(=O)[C@H](CC(=O)O)NC(=O)[C@H](CO)NC(=O)[C@H](CCCNC(=N)N)N(C)C(=O)c2ccccc2CSC1(C)C)C(N)=O` [compound 99] (HELM PEPTIDE1{[meR].S.D.T.L.[Pen].W.[dE].L.[am]}|CHEM1{[O=C(c1ccccc1C[*:2])[*:1]]}$PEPTIDE1,CHEM1,1:R1-1:R1|PEPTIDE1,CHEM1,6:R3-1:R2$$$V2.0) cannot be ordered by pIC50: over 7.60 for the first, over 7.60 for the second.

`CC(=O)NCCCC[C@@H](NC(=O)[C@H](CCC(=O)O)NC(=O)[C@H](Cc1ccc(O)cc1)NC(=O)[C@H]1NC(=O)[C@H](CC(C)C)NC(=O)[C@H]([C@@H](C)O)NC(=O)[C@H](CC(=O)O)NC(=O)[C@H](CO)NC(=O)[C@H](CCCNC(=N)N)N(C)C(=O)c2ccccc2CSC1(C)C)C(N)=O` [compound 90] (HELM PEPTIDE1{[meR].S.D.T.L.[Pen].Y.E.[dK].[am]}|PEPTIDE2{[ac]}|CHEM1{[O=C(c1ccccc1C[*:2])[*:1]]}$PEPTIDE1,PEPTIDE2,9:R3-1:R2|PEPTIDE1,CHEM1,1:R1-1:R1|PEPTIDE1,CHEM1,6:R3-1:R2$$$V2.0) and `CC(C)C[C@@H]1NC(=O)[C@H]([C@@H](C)O)NC(=O)[C@H](CC(=O)O)NC(=O)[C@H](CO)NC(=O)[C@H](CCCNC(=N)N)N(C)C(=O)c2ccccc2CSC(C)(C)[C@@H](C(=O)N[C@@H](Cc2ccc(O)cc2)C(=O)N[C@H](CCC(=O)O)C(=O)N[C@H](CCCCN)C(N)=O)NC1=O` [compound 79] (HELM PEPTIDE1{[meR].S.D.T.L.[Pen].Y.[dE].[dK].[am]}|CHEM1{[O=C(c1ccccc1C[*:2])[*:1]]}$PEPTIDE1,CHEM1,1:R1-1:R1|PEPTIDE1,CHEM1,6:R3-1:R2$$$V2.0) cannot be ordered by pIC50: over 7.60 for the first, over 7.60 for the second.

`CCCC[C@@H]1NC(=O)[C@H]([C@@H](C)O)NC(=O)[C@H](CC(=O)O)NC(=O)[C@H](CO)NC(=O)[C@H](CCCNC(=N)N)N(C)C(=O)c2ccccc2CSC(C)(C)[C@@H](C(=O)N[C@@H](Cc2c[nH]c3ccccc23)C(=O)N[C@@H](CCC(=O)O)C(=O)N[C@H](CCCCNC(C)=O)C(N)=O)NC1=O` [compound 86] (HELM PEPTIDE1{[meR].S.D.T.[Nle].[Pen].W.E.[dK].[am]}|PEPTIDE2{[ac]}|CHEM1{[O=C(c1ccccc1C[*:2])[*:1]]}$PEPTIDE1,PEPTIDE2,9:R3-1:R2|PEPTIDE1,CHEM1,1:R1-1:R1|PEPTIDE1,CHEM1,6:R3-1:R2$$$V2.0) and `CC(=O)NCCCC[C@@H](NC(=O)C[C@H](CCC(=O)O)NC(=O)[C@H](Cc1c[nH]c2ccccc12)NC(=O)[C@H]1NC(=O)[C@H](CC(C)C)NC(=O)[C@H]([C@@H](C)O)NC(=O)[C@H](CC(=O)O)NC(=O)[C@H](CO)NC(=O)[C@H](CCCNC(=N)N)N(C)C(=O)c2ccccc2CSC1(C)C)C(N)=O` [compound 83] (HELM PEPTIDE1{[meR].S.D.T.L.[Pen].W.[O=C(O)CC[C@@H](CC(=O)[*:2])N[*:1]].[dK].[am]}|PEPTIDE2{[ac]}|CHEM1{[O=C(c1ccccc1C[*:2])[*:1]]}$PEPTIDE1,PEPTIDE2,9:R3-1:R2|PEPTIDE1,CHEM1,1:R1-1:R1|PEPTIDE1,CHEM1,6:R3-1:R2$$$V2.0) cannot be ordered by pIC50: over 7.60 for the first, over 7.60 for the second.

Molecule `CC(C)C[C@@H]1NC(=O)[C@H]([C@@H](C)O)NC(=O)[C@H](CC(=O)O)NC(=O)[C@H](CO)NC(=O)[C@H](CCCNC(=N)N)N(C)C(=O)c2ccccc2CSC(C)(C)[C@@H](C(=O)N[C@@H](Cc2c[nH]c3ccccc23)C(=O)N[C@H](CCC(=O)O)C(=O)N[C@H](Cc2c[nH]cn2)C(N)=O)NC1=O` [compound 109] (HELM PEPTIDE1{[meR].S.D.T.L.[Pen].W.[dE].[dH].[am]}|CHEM1{[O=C(c1ccccc1C[*:2])[*:1]]}$PEPTIDE1,CHEM1,1:R1-1:R1|PEPTIDE1,CHEM1,6:R3-1:R2$$$V2.0) has a pIC50 of over 7.60.
